The source of these data is article PMC6468590, “Novel Flavivirus Antiviral That Targets the Host Nuclear Transport Importin α/β1 Heterodimer” (Cells, 2019).

The assay has as its target T1, IMPα2 (importin α, IMPα) (Mus musculus, UniProt P52293).
T1 construct: gene Kpna2; full-length His6-IMPα2 and IMPαΔIBB (residues 67–529, ARM repeat domain)
In words: multi-wavelength analytical ultracentrifugation (co-sedimentation at […] nm), SYPRO orange thermal shift and CD; the IC50 is AlphaScreen inhibition of IMPα binding to IMPβ[…].

Regarding `O=C1Nc2ccc(I)cc2/C1=C/c1cc(Br)c(O)c(Br)c1` [GW5074], the IC50 – broadly, the concentration that inhibits the measured activity by half – came to 10.3 ± 0.8 µM.
